From patent US20240246964A1 (Arbutus Biopharma Corporation, priority 2021, published 2024)

What was measured:
[1] = molecular target: PD-L1 His protein / PD-1 Fc protein (Homo sapiens (Human), UniProt Q9NZQ7); experiment: HTRF Assay (PD-1/PD-L1 interaction); type: binding; details: PD-L1 His 6 nM, PD-1 Fc 6 nM
human PD-L1 = human PD-L1 (Homo sapiens (Human), UniProt Q9NZQ7); experiment: T cell activation luciferase reporter cell culture system (T Cell Activation Assay); type: cell-based; details: luciferase reporter assay; PD-L1 aAPC/CHO-K1 cells with PD-1 effector Jurkat T cells
human PD-L1, sequence (Q9NZQ7 19-290): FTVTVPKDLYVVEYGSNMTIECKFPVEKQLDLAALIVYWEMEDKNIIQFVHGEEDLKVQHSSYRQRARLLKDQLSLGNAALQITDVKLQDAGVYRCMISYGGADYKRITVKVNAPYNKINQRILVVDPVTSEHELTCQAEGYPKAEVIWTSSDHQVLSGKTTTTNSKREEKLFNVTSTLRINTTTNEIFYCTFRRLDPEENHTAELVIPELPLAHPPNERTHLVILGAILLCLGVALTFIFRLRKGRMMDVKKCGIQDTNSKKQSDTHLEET

PD-L1 His protein / PD-1 Fc protein, sequence (Q9NZQ7 19-238): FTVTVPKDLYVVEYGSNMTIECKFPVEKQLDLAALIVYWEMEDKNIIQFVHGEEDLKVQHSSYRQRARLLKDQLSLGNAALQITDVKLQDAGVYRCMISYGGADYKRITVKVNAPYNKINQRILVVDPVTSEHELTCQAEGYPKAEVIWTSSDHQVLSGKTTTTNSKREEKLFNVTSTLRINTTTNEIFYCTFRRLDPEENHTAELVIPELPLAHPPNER

Row | Structure (SMILES) | IC50 [1] [nM] | EC50 (human PD-L1) [nM]
1 | COc1cc(-c2nccc(-c3cccc(-c4ccc5c(CNC6CCOCC6)cn(C)c5n4)c3Cl)c2Cl)ccc1CNC1CCOCC1 [Compound 563, N-((6-(2-Chloro-3-(3-chloro-2-(3-methoxy-4-(((tetrahydro-2H-pyran-4-yl)amino)methyl)phenyl)pyridin-4-yl)phenyl)-1-methyl-1H-pyrrolo[2,3-b]pyridin-3-yl)methyl)tetrahydro-2H-pyran-4-amine] | 4.07 | 956
2 | COc1cc(-c2nccc(-c3cccc(-c4ccc5c(CNC6CCN(C(C)=O)CC6)cn(C)c5n4)c3Cl)c2Cl)ccc1CN1CC2(C1)CN(C(C)=O)C2 [Compound 564, 1-(4-(((6-(3-(2-(4-((6-Acetyl-2,6-diazaspiro[3.3]heptan-2-yl)methyl)-3-methoxyphenyl)-3-chloropyridin-4-yl)-2-chlorophenyl)-1-methyl-1H-pyrrolo[2,3-b]pyridin-3-yl)methyl)amino)piperidin-1-yl)ethan-1-one] | 1.46 | 260
3 | COc1cc(-c2cccc(-c3ccnc(-c4cnc(CNC5CCN(C(C)=O)CC5)c(OC)c4)c3Cl)c2Cl)cnc1CNC1CCN(C(C)=O)CC1 [Compound 567, 1-(4-(((5-(3-(6′-(((1-acetylpiperidin-4-yl)amino)methyl)-3-chloro-5′-methoxy-[2,3′-bipyridin]-4-yl)-2-chlorophenyl)-3-methoxypyridin-2-yl)methyl)amino)piperidin-1-yl)ethan-1-one] | 17.7 | ≥ 10000
4 | COc1cc(-c2cccc(-c3ccnc(-c4cnc(CN5CC6(CNC(=O)C6)C5)c(OC)c4)c3Cl)c2Cl)cnc1CN1CC2(CNC(=O)C2)C1 [Compound 569, 2-((3-Chloro-4-(2-chloro-3-(5-methoxy-6-((7-oxo-2,6-diazaspiro[3.4]octan-2-yl)methyl)pyridin-3-yl)phenyl)-5′-methoxy-[2,3′-bipyridin]-6′-yl)methyl)-2,6-diazaspiro[3.4]octan-7-one] | 0.62 | 580
5 | COc1cc(-c2cccc(-c3ccnc(-c4cnc(CNC5CCOCC5)c(OC)c4)c3Cl)c2Cl)cnc1CNC1CCOCC1 [Compound 570, N-((5-(2-Chloro-3-(3-chloro-5′-methoxy-6′-(((tetrahydro-2H-pyran-4-yl)amino)methyl)-[2,3′-bipyridin]-4-yl)phenyl)-3-methoxypyridin-2-yl)methyl)tetrahydro-2H-pyran-4-amine] | 18.5 | ≥ 10000
6 | COc1nc(-c2cccc(-c3nccc(-c4ccc(CNC5CCN(C(C)=O)CC5)c(OC)n4)c3Cl)c2Cl)ccc1CNC1CCN(C(C)=O)CC1 [Compound 572, 1-(4-(((6-(3-(5-(((1-Acetylpiperidin-4-yl)amino)methyl)-3′-chloro-6-methoxy-[2,4′-bipyridin]-2′-yl)-2-chlorophenyl)-2-methoxypyridin-3-yl)methyl)amino)piperidin-1-yl)ethan-1-one] | 0.19 | 17.4
7 | COc1nc(-c2cccc(-c3nccc(-c4ccc(CN5CC6(CNC(=O)C6)C5)c(OC)n4)c3Cl)c2Cl)ccc1CN1CC2(CNC(=O)C2)C1 [Compound 573, 2-((3′-Chloro-2′-(2-chloro-3-(6-methoxy-5-((7-oxo-2,6-diazaspiro[3.4]octan-2-yl)methyl)pyridin-2-yl)phenyl)-6-methoxy-[2,4′-bipyridin]-5-yl)methyl)-2,6-diazaspiro[3.4]octan-7-one] | 0.17 | 14.4
8 | COc1nc(-c2cccc(-c3nccc(-c4ccc(CNC5CCOCC5)c(OC)n4)c3Cl)c2Cl)ccc1CNC1CCOCC1 [Compound 574, N-((3′-Chloro-2′-(2-chloro-3-(6-methoxy-5-(((tetrahydro-2H-pyran-4-yl)amino)methyl)pyridin-2-yl)phenyl)-6-methoxy-[2,4′-bipyridin]-5-yl)methyl)tetrahydro-2H-pyran-4-amine] | 0.04 | 14
